In US10166218B2, “3-(1H-indol-2-yl)-1H-pyrazolo[3,4-C]pyridines and therapeutic uses thereof” (Samumed, LLC, priority 2015, dated 2019):

Assays:
Format in all cases: cell-based
[1] = test system: SW480 colon cancer cells; test: Cell viability assay (CellTiter-Blue) in SW480 colon cancer cells; details: Homo sapiens, 96 h, four days, CellTiter-Blue
Procedure, shortened: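 Resazurin reduction (Ex 560/Em 590 nm, ~3 h reagent incubation) served as the viability read-out after SW480 cells were treated for four days at 37 °C. Doses ran from 10 μM down to 0.0045 μM in eight 1:3 steps. Curves fitted non-linearly for EC50, else % inhibition at 10 μM reported.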

[2] = test system: primary human fibroblasts derived from IPF patients (LL29 cells) treated with TGF-β1; α-smooth muscle actin (αSMA); test: Inhibition of the fibrotic process: αSMA staining in TGF-β1 treated primary human fibroblasts from IPF patients (LL29 cells); details: Fibroblast, 96 h, TGF-β1 20 ng/mL, 4 days, % cells positive for αSMA
Procedure, shortened: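 EC50 values come from non-linear fits of the αSMA-positive percentage among SYTOX-excluded live cells, normalized to TGF-β1 plus DMSO controls, or appear as % inhibition at 10 μM when above 10 μM. Fibrosis was induced in IPF-derived LL29 fibroblasts by 20 ng/mL TGF-β1 over 4 days, with 1:2 compound dilutions from 10 μM.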

[3] = test system: IL-6 (THP-1 cells); test: Inhibition of IL-6 in LPS-stimulated THP-1 human monocyte cells (HTRF); details: inhibition of IL-6 in LPS-stimulated THP-1 cells, HTRF, 10-point dose-response starting from 10 μM
Procedure, shortened: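 Readout is the 665/620 nm HTRF ratio for secreted IL-6, normalized to DMSO wells, with EC50 from a variable-slope four-parameter fit, or % inhibition at 10 μM when above 10 μM. Cells (1% FBS, 24 h beforehand) got compound for 2 h, then LPS 500 ng/mL for 22 h at 37° C; top dose 10 μM, 0.1% DMSO.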

[4] = test system: Wnt activity (Sp5-Luc reporter, TCF/LEF binding sites) in SW480 colon carcinoma cells; test: Screening assay for Wnt activity: Sp5-Luc reporter gene assay in stably transduced SW480 cells; details: Homo sapiens, overnight incubation
Procedure, shortened: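 Luminescence (BrightGlo) was normalised to DMSO-only wells and fitted with a four-parameter variable-slope model for EC50; beyond 10 μM, % inhibition at 10 μM is given. Stable Sp5-Luc SW480 reporter cells, 4,000/well in 1% FBS, were exposed overnight at 37 °C to compounds, top 10 μM, 1:3 dilutions, 0.1% DMSO.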

| SMILES | EC50 [1] [nM] | EC50 [3] [nM] | EC50 [4] [nM] | EC50 [2] [nM] |
| --- | --- | --- | --- | --- |
| CN(C)CCNc1cc(F)cc(-c2cccc3[nH]c(-c4n[nH]c5cnc(-c6cncc(NC(=O)C7CC7)c6)cc45)cc23)c1 [Compound 468, N-(5-(3-(4-(3-((2-(Dimethylamino)ethyl)amino)-5-fluorophenyl)-1H-indol-2-yl)-1H-pyrazolo[3,4-c]pyridin-5-yl)pyridin-3-yl)cyclopropanecarboxamide] | 1980 | 866 | 1310 | 3510 |
| CC(C)Nc1cncc(-c2cc3c(-c4cc5c(-c6cc(F)cc(CNS(C)(=O)=O)c6)cccc5[nH]4)n[nH]c3cn2)c1 [Compound 488, N-(3-Fluoro-5-(2-(5-(5-(isopropylamino)pyridin-3-yl)-1H-pyrazolo[3,4-c]pyridin-3-yl)-1H-indol-4-yl)benzyl)methanesulfonamide] | 688 | 526 | 157 | 182 |
| CS(=O)(=O)NCc1cc(F)cc(-c2cccc3[nH]c(-c4n[nH]c5cnc(-c6cncc(NC(=O)C7CCCCC7)c6)cc45)cc23)c1 [Compound 499, N-(5-(3-(4-(3-Fluoro-5-(methylsulfonamidomethyl)phenyl)-1H-indol-2-yl)-1H-pyrazolo[3,4-c]pyridin-5-yl)pyridin-3-yl)cyclohexanecarboxamide] | 4540 | 1780 | 1760 | 4790 |
| CS(=O)(=O)NCc1cc(F)cc(-c2cccc3[nH]c(-c4n[nH]c5cnc(-c6cncc(CNCC7CCCC7)c6)cc45)cc23)c1 [Compound 501, N-(3-(2-(5-(5-(((Cyclopentylmethyl)amino)methyl)pyridin-3-yl)-1H-pyrazolo[3,4-c]pyridin-3-yl)-1H-indol-4-yl)-5-fluorobenzyl)methanesulfonamide] | 2250 | 1030 | 1340 | 463 |
| CS(=O)(=O)NCc1cc(F)cc(-c2cccc3[nH]c(-c4n[nH]c5cnc(-c6cncc(CN7CCC(F)(F)C7)c6)cc45)cc23)c1 [Compound 502, N-(3-(2-(5-(5-((3,3-Difluoropyrrolidin-1-yl)methyl)pyridin-3-yl)-1H-pyrazolo[3,4-c]pyridin-3-yl)-1H-indol-4-yl)-5-fluorobenzyl)methanesulfonamide] | 882 | 481 | 253 | 28 |

Further lines, with some results ahead:

| EC50 [1] [nM] | EC50 [3] [nM] | EC50 [4] [nM] | SMILES | EC50 [2] [nM] |
| --- | --- | --- | --- | --- |
| 365 | 3990 | 421 | Fc1cccc(-c2cccc3[nH]c(-c4n[nH]c5cnc(-c6cncc(OCc7ccccc7)c6)cc45)cc23)c1 [Compound 546, 5-(5-(Benzyloxy)pyridin-3-yl)-3-(4-(3-fluorophenyl)-1H-indol-2-yl)-1H-pyrazolo[3,4-c]pyridine] | 234 |
| 1520 | 954 | 754 | Cc1ncc(-c2cc3c(-c4cc5ccccc5[nH]4)n[nH]c3cn2)n1C [Compound 681, 5-(1,2-Dimethyl-1H-imidazol-5-yl)-3-(1H-indol-2-yl)-1H-pyrazolo[3,4-c]pyridine] | 292 |
| 1430 | 353 | 171 | c1cnc2cc(-c3n[nH]c4cnc(-c5cncc(OC6CCCCC6)c5)cc34)[nH]c2c1 [Compound 1025, 5-(5-(Cyclohexyloxy)pyridin-3-yl)-3-(1H-pyrrolo[3,2-b]pyridin-2-yl)-1H-pyrazolo[3,4-c]pyridine] | 584 |
